Laboratory results: patent US8003602B2 (priority 2006, dated 2011)
Converted amounts (≈) assume the structure as drawn.

Key:
[1] = system: S. aureus (20666); assay: MIC, Macro-broth dilution method; format: cell-based, Staphylococcus aureus
Text: (§1) The in-vitro potency was established by minimum inhibitory concentration (MIC) determinations of the compound PM181104 against bacterial strains, by using the Macro-broth dilution method as per National Committee for Clinical Laboratory Standards (2000) guidelines [Journal of Anti-microbial Chemotherapy, 2002, 50, 125-128 (Cross Reference 8: Methods for Dilution Antimicrobial Susceptibility Tests for Bacteria that Grow Aerobically-Fifth Edition: Approved Standard M7-A5. NCCLS, Wayne, Pa., USA)]. Unless stated otherwise, Mueller-Hinton broth was used as nutrient medium for the assay. Linezolid (manufactured by Glenmark Pharma Ltd; Batch no: K2005028) was used as known standard in all in-vitro experiments. For preparation of the stock solution the compound PM181104 was dissolved in chloroform (5% of the total required volume) and diluted using methanol (95% of the total required volume).

[2] = system: S. aureus (3066); assay: MIC, Macro-broth dilution method; format: cell-based, Staphylococcus aureus
Text: as §1

[3] = system: S. aureus (789); assay: MIC, Macro-broth dilution method; format: cell-based, Staphylococcus aureus
Text: as §1

[4] = system: S. aureus (E710); assay: MIC, Macro-broth dilution method; format: cell-based, Staphylococcus aureus; conditions: S. aureus MRSA E710
Text: as §1

[5] = system: S. aureus ATCC29213; assay: MIC, Macro-broth dilution method; format: cell-based, Staphylococcus aureus
Text: as §1

[6] = system: S. aureus Bom-MRSA2; assay: MIC, Macro-broth dilution method; format: cell-based, Staphylococcus aureus
Text: as §1

[7] = system: S. aureus C1 3184; assay: MIC, Macro-broth dilution method; format: cell-based, Staphylococcus aureus
Text: as §1

[8] = system: S. aureus KEM-MRSA11; assay: MIC, Macro-broth dilution method; format: cell-based, Staphylococcus aureus
Text: as §1

[9] = system: S. aureus KEM-MRSA12; assay: MIC, Macro-broth dilution method; format: cell-based, Staphylococcus aureus
Text: as §1

[10] = system: S. aureus KEM-MRSA18; assay: MIC, Macro-broth dilution method; format: cell-based, Staphylococcus aureus
Text: as §1

[11] = system: S. aureus KEM-MRSA19; assay: MIC, Macro-broth dilution method; format: cell-based, Staphylococcus aureus
Text: as §1

[12] = system: S. aureus KEM-MRSA1; assay: MIC, Macro-broth dilution method; format: cell-based, Staphylococcus aureus
Text: as §1

[13] = system: S. aureus KEM-MRSA20; assay: MIC, Macro-broth dilution method; format: cell-based, Staphylococcus aureus
Text: as §1

[14] = system: S. aureus KEM-MRSA21; assay: MIC, Macro-broth dilution method; format: cell-based, Staphylococcus aureus
Text: as §1

[15] = system: S. aureus KEM-MRSA22; assay: MIC, Macro-broth dilution method; format: cell-based, Staphylococcus aureus
Text: as §1

[16] = system: S. aureus KEM-MRSA23; assay: MIC, Macro-broth dilution method; format: cell-based, Staphylococcus aureus
Text: as §1

[17] = system: S. aureus KEM-MRSA24; assay: MIC, Macro-broth dilution method; format: cell-based, Staphylococcus aureus
Text: as §1

[18] = system: S. aureus KEM-MRSA25; assay: MIC, Macro-broth dilution method; format: cell-based, Staphylococcus aureus
Text: as §1

[19] = system: S. aureus KEM-MRSA2; assay: MIC, Macro-broth dilution method; format: cell-based, Staphylococcus aureus
Text: as §1

[20] = system: S. aureus KEM-MRSA7; assay: MIC, Macro-broth dilution method; format: cell-based, Staphylococcus aureus
Text: as §1

[21] = system: S. aureus KEM-MRSA8; assay: MIC, Macro-broth dilution method; format: cell-based, Staphylococcus aureus
Text: as §1

[22] = system: S. aureus Lilavati-MRSA3; assay: MIC, Macro-broth dilution method; format: cell-based, Staphylococcus aureus
Text: as §1

[23] = system: S. aureus Rehaja-MRSA1; assay: MIC, Macro-broth dilution method; format: cell-based, Staphylococcus aureus
Text: as §1

[24] = system: S. aureus SG511; assay: MIC, Macro-broth dilution method; format: cell-based, Staphylococcus aureus
Text: as §1

[25] = system: S. aureus wien13; assay: MIC, Macro-broth dilution method; format: cell-based, Staphylococcus aureus
Text: as §1

[26] = system: S. aureus wien8; assay: MIC, Macro-broth dilution method; format: cell-based, Staphylococcus aureus
Text: as §1

[27] = system: E. faecium (R-2); format: cell-based, Enterococcus faecium; conditions: E. faecium R-2 (VRE)
Text: as §1

[28] = system: E. faecium ATCC 51559; format: cell-based, Enterococcus faecium
Text: as §1

[29] = system: E. faecium 4045H; assay: MIC, Macro-broth dilution method; format: cell-based, Enterococcus faecium
Text: as §1

[30] = system: E. faecium D-59; assay: MIC, Macro-broth dilution method; format: cell-based, Enterococcus faecium
Text: as §1

[31] = system: methicillin resistant S. aureus E710 (MRSA); format: in vivo, Balb/C mice; conditions: 5 mg/kg intravenously two hours post infection
Text: The in-vivo potency was established by protection dose (PD) determinations of the compound PM181104 for its antibiotic activity in three animal models using either male or female Balb/C mice.
The models used were the general purpose efficacy testing models and organ/tissue specific efficacy testing models. The general purpose efficacy testing models used were systemic infection model (septicemia), and localized infection model (neutropenic thigh model). The Organ/Tissue specific infection models used for efficacy testing were kidney, lung infection, and skin abscess model.
Balb/C mice were infected subcutaneously with approximately 10^8 cfu of an overnight grown culture of methicillin resistant S. aureus E710 (MRSA). The bacteria were suspended in 1:1 mixture of 2% cytodex beads in normal saline (0.85% sodium chloride). PM181104 was prepared in cremophor-ethanol formulation as described in example 14. The solution was administered intravenously at 2.5 mg, 5 mg and 10 mg/kg doses, two hours post infection. Each experimental group consisted of six animals. Following abscess formation the animals were sacrificed and abscess harvested to determine the viable counts. […] Linezolid (manufactured by Glenmark Pharma Ltd; Batch no: K2005028) at 50 mg/kg dose.

**Q.** With C=C(NC(=O)C(=C)NC(=O)C1CCCN1C(=O)c1nc(-c2ccc(-c3nc(C(=O)NC(=C)C(=O)NC(C)C(N)=O)cs3)c(-c3csc(C4Cc5nc(cs5)C(=O)NC(Cc5ccccc5)C5=NC(CS5)C(=O)NC(Cc5ccc(O)cc5)C(=O)N5CCCC5c5nc(cs5)C(=O)N4)n3)n2)oc1C)C(N)=O (stereo not shown) [PM181104] as the molecule, how does the MIC [1] read?
**A.** Its MIC is 0.01563 µg/mL (≈ 0.0103 µM).

**Q.** What about the MIC [2] of the same molecule?
**A.** The MIC was 0.03125 µg/mL (≈ 0.0206 µM).

**Q.** And the MIC [3]?
**A.** Its MIC is 0.00781 µg/mL (≈ 0.00515 µM).

**Q.** And the MIC [4]?
**A.** The MIC was 0.03125 µg/mL (≈ 0.0206 µM).

**Q.** And the MIC [5]?
**A.** Its MIC is 0.03125 µg/mL (≈ 0.0206 µM).

**Q.** What about the MIC [6] of the same molecule?
**A.** The MIC was 0.0625 µg/mL (≈ 0.0412 µM).

**Q.** And the MIC [7]?
**A.** Its MIC is 0.0625 µg/mL (≈ 0.0412 µM).

**Q.** And the MIC [8]?
**A.** The MIC was 0.0625 µg/mL (≈ 0.0412 µM).

**Q.** And the MIC [9]?
**A.** Its MIC is 0.01563 µg/mL (≈ 0.0103 µM).

**Q.** What about the MIC [10] of the same molecule?
**A.** The MIC was 0.01563 µg/mL (≈ 0.0103 µM).

**Q.** What about the MIC [11] of the same molecule?
**A.** Its MIC is 0.00781 µg/mL (≈ 0.00515 µM).

**Q.** What about the MIC [12] of the same molecule?
**A.** Its MIC is 0.03125 µg/mL (≈ 0.0206 µM).

**Q.** And the MIC [13]?
**A.** Its MIC is 0.01563 µg/mL (≈ 0.0103 µM).

**Q.** And the MIC [14]?
**A.** The MIC was 0.01563 µg/mL (≈ 0.0103 µM).

**Q.** And the MIC [15]?
**A.** Its MIC is 0.00781 µg/mL (≈ 0.00515 µM).

**Q.** What about the MIC [16] of the same molecule?
**A.** The MIC was 0.01563 µg/mL (≈ 0.0103 µM).

**Q.** And the MIC [17]?
**A.** Its MIC is 0.00781 µg/mL (≈ 0.00515 µM).

**Q.** And the MIC [18]?
**A.** Its MIC is 0.01563 µg/mL (≈ 0.0103 µM).

**Q.** And the MIC [19]?
**A.** The MIC was 0.03125 µg/mL (≈ 0.0206 µM).

**Q.** What about the MIC [20] of the same molecule?
**A.** The MIC was 0.01563 µg/mL (≈ 0.0103 µM).

**Q.** And the MIC [21]?
**A.** Its MIC is 0.01563 µg/mL (≈ 0.0103 µM).

**Q.** And the MIC [22]?
**A.** The MIC was 0.01563 µg/mL (≈ 0.0103 µM).

**Q.** What about the MIC [23] of the same molecule?
**A.** The MIC was 0.03125 µg/mL (≈ 0.0206 µM).

**Q.** And the MIC [24]?
**A.** Its MIC is 0.0625 µg/mL (≈ 0.0412 µM).

**Q.** What about the MIC [25] of the same molecule?
**A.** The MIC was 0.0625 µg/mL (≈ 0.0412 µM).

**Q.** And the MIC [26]?
**A.** The MIC was 0.01563 µg/mL (≈ 0.0103 µM).

**Q.** And the MIC [27]?
**A.** The MIC was 0.00781 µg/mL (≈ 0.00515 µM).

**Q.** What about the MIC [28] of the same molecule?
**A.** Its MIC is 0.00781 µg/mL (≈ 0.00515 µM).

**Q.** What about the MIC [29] of the same molecule?
**A.** The MIC was 0.00781 µg/mL (≈ 0.00515 µM).

**Q.** And the MIC [30]?
**A.** Its MIC is 0.00781 µg/mL (≈ 0.00515 µM).

**Q.** And the “decrease in bacterial count in abscess” value [31]?
**A.** Its value is “approximately 1 log”.
